Assay results: ChEMBL document CHEMBL3885881, “DrugMatrix”

Organism: Rattus norvegicus
Test: DrugMatrix - Regimen: Daily Repeat
Format: toxicity, organism-based, Sprague-Dawley
Parameters: regimen Daily Repeat, gender Male, age 6-8 weeks
Conditions: in vivo, iv, vehicle 100 % SALINE; for ABSOLUTE BASOPHIL / ABSOLUTE EOSINOPHIL / ABSOLUTE LYMPHOCYTE / ABSOLUTE MONOCYTE / ABSOLUTE SEGMENTED NEUTROPHIL / BASOPHIL / EOSINOPHIL / ERYTHROCYTE COUNT / HEMATOCRIT / HEMOGLOBIN / LEUKOCYTE COUNT / LYMPHOCYTE / MEAN CORPUSCULAR HEMOGLOBIN / MEAN CORPUSCULAR HEMOGLOBIN CONCENTRATION / MEAN CORPUSCULAR VOLUME / MONOCYTE / NEUTROPHIL / NUCLEATED RED BLOOD CELLS / PLATELET COUNT: tissue Blood; for ALANINE AMINOTRANSFERASE / ALBUMIN / ALKALINE PHOSPHATASE / ASPARTATE AMINOTRANSFERASE / BLOOD UREA NITROGEN / CARBON DIOXIDE / CHLORIDE / CHOLESTEROL / CREATINE PHOSPHOKINASE / CREATININE / GLUCOSE / LACTATE DEHYDROGENASE / LIPASE / PHOSPHORUS / POTASSIUM / SODIUM / TOTAL BILIRUBIN / TOTAL PROTEIN / URIC ACID: tissue Plasma
[1] = 0 mg/kg, 72 h, dose level Control, time 3 day
[2] = 0 mg/kg, 120 h, dose level Control, time 5 day
[3] = 20 mg/kg, 72 h, dose level Low, time 3 day
[4] = 20 mg/kg, 120 h, dose level Low, time 5 day

## CN(N=O)C(=O)N[C@@H](C=O)[C@@H](O)[C@H](O)[C@H](O)CO [STREPTOZOCIN]
[1]
  ABSOLUTE BASOPHIL: 0 CELLS/uL
  ABSOLUTE EOSINOPHIL: 247.67 CELLS/uL
  ABSOLUTE LYMPHOCYTE: 13190.83 CELLS/uL
  ABSOLUTE MONOCYTE: 307.67 CELLS/uL
  ABSOLUTE SEGMENTED NEUTROPHIL: 1220.5 CELLS/uL
  BASOPHIL: 0%
  EOSINOPHIL: 1.67%
  ERYTHROCYTE COUNT: 5.47 x10E6/uL
  HEMATOCRIT: 33.98%
  HEMOGLOBIN: 12.65 G/DL
  LEUKOCYTE COUNT: 14.97 x10E3/uL
  LYMPHOCYTE: 88.17%
  MEAN CORPUSCULAR HEMOGLOBIN: 23.17 pg
  MEAN CORPUSCULAR HEMOGLOBIN CONCENTRATION: 37.23 G/DL
  MEAN CORPUSCULAR VOLUME: 62.25 fL
  MONOCYTE: 2%
  NEUTROPHIL: 8.17%
  NUCLEATED RED BLOOD CELLS: 0 /100WBC
  PLATELET COUNT: 1307.17 x10E3/uL
  ALANINE AMINOTRANSFERASE: 39.67 u/L
  ALBUMIN: 4.08 G/DL
  ALKALINE PHOSPHATASE: 383.17 u/L
  ASPARTATE AMINOTRANSFERASE: 88.83 u/L
  BLOOD UREA NITROGEN: 18.5 mg/dL
  CARBON DIOXIDE: 27.5 mmol/L
  CHLORIDE: 103 MEQ/L
  CHOLESTEROL: 67.33 mg/dL
  CREATINE PHOSPHOKINASE: 414.67 u/L
  CREATININE: 0.19 mg/dL
  GLUCOSE: 149.33 mg/dL
  LACTATE DEHYDROGENASE: 536.83 u/L
  LIPASE: 8.83 u/L
  PHOSPHORUS: 11.13 mg/dL
  POTASSIUM: 6.23 MEQ/L
  SODIUM: 144.42 MEQ/L
  TOTAL BILIRUBIN: 0.18 mg/dL
  TOTAL PROTEIN: 5.57 G/DL
  URIC ACID: 1.23 mg/dL
[2]
  ABSOLUTE BASOPHIL: 0 CELLS/uL
  ABSOLUTE EOSINOPHIL: 158.83 CELLS/uL
  ABSOLUTE LYMPHOCYTE: 13517.17 CELLS/uL
  ABSOLUTE MONOCYTE: 352.67 CELLS/uL
  ABSOLUTE SEGMENTED NEUTROPHIL: 1104.67 CELLS/uL
  BASOPHIL: 0%
  EOSINOPHIL: 1%
  ERYTHROCYTE COUNT: 5.73 x10E6/uL
  HEMATOCRIT: 36.85%
  HEMOGLOBIN: 13.67 G/DL
  LEUKOCYTE COUNT: 15.13 x10E3/uL
  LYMPHOCYTE: 89.5%
  MEAN CORPUSCULAR HEMOGLOBIN: 23.87 pg
  MEAN CORPUSCULAR HEMOGLOBIN CONCENTRATION: 37.1 G/DL
  MEAN CORPUSCULAR VOLUME: 64.33 fL
  MONOCYTE: 2.33%
  NEUTROPHIL: 7.17%
  NUCLEATED RED BLOOD CELLS: 0.17 /100WBC
  PLATELET COUNT: 1266 x10E3/uL
  ALANINE AMINOTRANSFERASE: 49.17 u/L
  ALBUMIN: 4.22 G/DL
  ALKALINE PHOSPHATASE: 352.67 u/L
  ASPARTATE AMINOTRANSFERASE: 95.17 u/L
  BLOOD UREA NITROGEN: 18.83 mg/dL
  CARBON DIOXIDE: 25.67 mmol/L
  CHLORIDE: 102.67 MEQ/L
  CHOLESTEROL: 66.83 mg/dL
  CREATINE PHOSPHOKINASE: 550.33 u/L
  CREATININE: 0.23 mg/dL
  GLUCOSE: 186.17 mg/dL
  LACTATE DEHYDROGENASE: 471.33 u/L
  LIPASE: 8.67 u/L
  PHOSPHORUS: 12.3 mg/dL
  POTASSIUM: 6.35 MEQ/L
  SODIUM: 143.57 MEQ/L
  TOTAL BILIRUBIN: 0.18 mg/dL
  TOTAL PROTEIN: 6.05 G/DL
  URIC ACID: 2 mg/dL
[3]
  ABSOLUTE BASOPHIL: 0 CELLS/uL
  ABSOLUTE EOSINOPHIL: 193 CELLS/uL
  ABSOLUTE LYMPHOCYTE: 10866.33 CELLS/uL
  ABSOLUTE MONOCYTE: 207.67 CELLS/uL
  ABSOLUTE SEGMENTED NEUTROPHIL: 899.67 CELLS/uL
  BASOPHIL: 0%
  EOSINOPHIL: 1.67%
  ERYTHROCYTE COUNT: 5.49 x10E6/uL
  HEMATOCRIT: 33.93%
  HEMOGLOBIN: 12.73 G/DL
  LEUKOCYTE COUNT: 12.17 x10E3/uL
  LYMPHOCYTE: 89.33%
  MEAN CORPUSCULAR HEMOGLOBIN: 23.23 pg
  MEAN CORPUSCULAR HEMOGLOBIN CONCENTRATION: 37.5 G/DL
  MEAN CORPUSCULAR VOLUME: 61.77 fL
  MONOCYTE: 1.67%
  NEUTROPHIL: 7.33%
  NUCLEATED RED BLOOD CELLS: 0.33 /100WBC
  PLATELET COUNT: 1240.67 x10E3/uL
  ALANINE AMINOTRANSFERASE: 42 u/L
  ALBUMIN: 4.1 G/DL
  ALKALINE PHOSPHATASE: 304.33 u/L
  ASPARTATE AMINOTRANSFERASE: 96.33 u/L
  BLOOD UREA NITROGEN: 16 mg/dL
  CARBON DIOXIDE: 25.33 mmol/L
  CHLORIDE: 104 MEQ/L
  CHOLESTEROL: 67 mg/dL
  CREATINE PHOSPHOKINASE: 595 u/L
  CREATININE: 0.25 mg/dL
  GLUCOSE: 148.67 mg/dL
  LACTATE DEHYDROGENASE: 798.67 u/L
  LIPASE: 9.33 u/L
  PHOSPHORUS: 11.97 mg/dL
  POTASSIUM: 6.35 MEQ/L
  SODIUM: 143.3 MEQ/L
  TOTAL BILIRUBIN: 0.17 mg/dL
  TOTAL PROTEIN: 5.4 G/DL
  URIC ACID: 1.33 mg/dL
[4]
  ABSOLUTE BASOPHIL: 0 CELLS/uL
  ABSOLUTE EOSINOPHIL: 64 CELLS/uL
  ABSOLUTE LYMPHOCYTE: 13587.67 CELLS/uL
  ABSOLUTE MONOCYTE: 429.67 CELLS/uL
  ABSOLUTE SEGMENTED NEUTROPHIL: 1452 CELLS/uL
  BASOPHIL: 0%
  EOSINOPHIL: 0.33%
  ERYTHROCYTE COUNT: 5.57 x10E6/uL
  HEMATOCRIT: 35.7%
  HEMOGLOBIN: 13.4 G/DL
  LEUKOCYTE COUNT: 15.53 x10E3/uL
  LYMPHOCYTE: 87.33%
  MEAN CORPUSCULAR HEMOGLOBIN: 24.07 pg
  MEAN CORPUSCULAR HEMOGLOBIN CONCENTRATION: 37.53 G/DL
  MEAN CORPUSCULAR VOLUME: 64.17 fL
  MONOCYTE: 2.67%
  NEUTROPHIL: 9.67%
  NUCLEATED RED BLOOD CELLS: 0 /100WBC
  PLATELET COUNT: 1260.33 x10E3/uL
  ALANINE AMINOTRANSFERASE: 54.33 u/L
  ALBUMIN: 4 G/DL
  ALKALINE PHOSPHATASE: 308.67 u/L
  ASPARTATE AMINOTRANSFERASE: 82.33 u/L
  BLOOD UREA NITROGEN: 21 mg/dL
  CARBON DIOXIDE: 26.33 mmol/L
  CHLORIDE: 103.67 MEQ/L
  CHOLESTEROL: 70.33 mg/dL
  CREATINE PHOSPHOKINASE: 420.67 u/L
  CREATININE: 0.21 mg/dL
  GLUCOSE: 181.67 mg/dL
  LACTATE DEHYDROGENASE: 60.33 u/L
  LIPASE: 7.67 u/L
  PHOSPHORUS: 12.23 mg/dL
  POTASSIUM: 6.34 MEQ/L
  SODIUM: 146.17 MEQ/L
  TOTAL BILIRUBIN: 0.17 mg/dL
  TOTAL PROTEIN: 6.03 G/DL
  URIC ACID: 1.87 mg/dL
